Tests used:
Assay type in all cases: biochemical
Settings in all cases: 1 mM ATP
human JAK1 = human JAK1 (Homo sapiens, UniProt P23458); assay: JAK inhibitory activity assay (JAK1)
Method: (§1) Compounds herein were tested for inhibitory activity of JAK targets according to the following in vitro assay described in Park et al., Analytical Biochemistry 1999, 269, 94-104. The catalytic domains of human JAK1 (a.a. 837-1142), Jak2 (a.a. 828-1132) and Jak3 (a.a. 781-1124) with an N-terminal His tag were expressed using baculovirus in insect cells and purified. The catalytic activity of JAK1 and JAK2 was assayed by measuring the phosphorylation of a biotinylated peptide. The phosphorylated peptide was detected by homogenous time resolved fluorescence (HTRF). Each enzyme reaction was carried out with or without test compound (11-point dilution), JAK enzyme, 500 nM peptide, adenosine triphosphate (ATP; 1 mM), and 2.0% dimethyl sulfoxide (DMSO) in assay buffer (50 mM Tris (pH 7.8) buffer, 100 mM NaCl, 5 mM DTT, and 0.1 mg/mL (0.01%) BSA). The peptide substrate (Biotin-[…]) was custom synthesized by Biosource International. Reactions were carried out at room temperature for 1 hour and then stopped with 10 μL 45 mM EDTA, 200 nM SA-APC, 4 nM Eu-Py20 in assay buffer (Perkin Elmer, Boston, Mass.). After incubation for 30 minutes at room temperature, the HTRF signal was measured on a PheraStar plate reader.

JAK2 = JAK2 (Homo sapiens (Human), UniProt O60674); assay: JAK inhibitory activity assay (JAK2)
Method: as §1

CDK2/Cyclin E1 = CDK2/Cyclin E1 (Homo sapiens (Human), UniProt P24941); assay: CDK2/Cyclin E1 HTRF enzyme activity assay
Method: Assays are conducted in white 384-well polystyrene plates in a final reaction volume of 8 μL. […] HTRF signals are read after 1 hour at room temperature on a PHERAstar FS plate reader (BMG Labtech). Data is analyzed with IDBS XLFit and GraphPad Prism 5.0 software using a three or four parameter dose response curve to determine IC50 for each compound.

JAK2, sequence (O60674 828-1132): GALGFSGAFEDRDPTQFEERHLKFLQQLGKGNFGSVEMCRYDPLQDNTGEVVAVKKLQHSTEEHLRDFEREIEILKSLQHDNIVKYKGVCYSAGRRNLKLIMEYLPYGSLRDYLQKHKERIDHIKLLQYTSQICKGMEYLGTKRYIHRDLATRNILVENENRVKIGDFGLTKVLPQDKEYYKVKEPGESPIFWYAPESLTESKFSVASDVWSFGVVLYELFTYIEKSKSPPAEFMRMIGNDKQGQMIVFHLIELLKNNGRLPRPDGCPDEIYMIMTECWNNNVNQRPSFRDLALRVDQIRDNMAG

Row | IC50 (human JAK1) [nM] | IC50 (JAK2) [nM] | IC50 (CDK2/Cyclin E1) [nM] | SMILES
1 | ≥ 10000 | ≥ 10000 | < 50 | Cn1cc(S(=O)(=O)N2CCC(Nc3ncc(C(F)(F)F)c(-c4cnn(CC(F)(F)F)c4)n3)CC2)cn1 [Example 1, N-(1-((1-Methyl-1H-pyrazol-4-yl)sulfonyl)piperidin-4-yl)-4-(1-(2,2,2-trifluoroethyl)-1H-pyrazol-4-yl)-5-(trifluoromethyl)pyrimidin-2-amine]
2 | ≥ 10000 | ≥ 10000 | < 50 | CS(=O)(=O)N1CCC(Nc2ncc(C(F)(F)F)c(-c3cnn(CC(F)(F)F)c3)n2)CC1 [Example 10, N-(1-(Methylsulfonyl)piperidin-4-yl)-4-(1-(2,2,2-trifluoroethyl)-1H-pyrazol-4-yl)-5-(trifluoromethyl)pyrimidin-2-amine]
3 | ≥ 10000 | ≥ 10000 | < 50 | CN1CCC(n2cc(-c3nc(NC4CCN(S(C)(=O)=O)CC4)ncc3C(F)(F)F)cn2)CC1 [Example 11, 4-(1-(1-Methylpiperidin-4-yl)-1H-pyrazol-4-yl)-N-(1-(methylsulfonyl)piperidin-4-yl)-5-(trifluoromethyl)pyrimidin-2-amine]
4 | ≥ 10000 | ≥ 10000 | < 50 | CNCc1ccc(-n2cc(-c3nc(NC4CCN(S(C)(=O)=O)CC4)ncc3C(F)(F)F)cn2)c(C)c1 [Example 41, 4-(1-(2-Methyl-4-((methylamino)methyl)phenyl)-1H-pyrazol-4-yl)-N-(1-(methylsulfonyl)piperidin-4-yl)-5-(trifluoromethyl)pyrimidin-2-amine]
5 | ≥ 5000 | ≥ 5000 | < 50 | CO[C@H]1CC[C@H](n2cc(-c3nc(NC4CCN(S(=O)(=O)c5cn(C)cn5)CC4)ncc3C(F)(F)F)cn2)CC1 [Example 42, 4-(1-((1r,4r)-4-Methoxycyclohexyl)-1H-pyrazol-4-yl)-N-(1-((1-methyl-1H-imidazol-4-yl)sulfonyl)piperidin-4-yl)-5-(trifluoromethyl)pyrimidin-2-amine]
6 | ≥ 10000 | ≥ 10000 | < 50 | C[C@]1(N)C[C@@H](n2cc(-c3nc(NC4CCN(S(=O)(=O)C5CC5)CC4)ncc3C(F)(F)F)cn2)C1 [Example 44, 4-(1-((1s,3s)-3-Amino-3-methylcyclobutyl)-1H-pyrazol-4-yl)-N-(1-(cyclopropylsulfonyl)piperidin-4-yl)-5-(trifluoromethyl)pyrimidin-2-amine]
7 | ≥ 10000 | ≥ 10000 | < 50 | CC(C)(O)Cn1cc(-c2nc(NC3CCN(S(=O)(=O)C4CC4)CC3)ncc2C(F)(F)F)cn1 [Example 51, 1-(4-(2-((1-(Cyclopropylsulfonyl)piperidin-4-yl)amino)-5-(trifluoromethyl)pyrimidin-4-yl)-1H-pyrazol-1-yl)-2-methylpropan-2-ol]
8 | – | – | < 50 | Cc1nc(CNC(C)(C)C)ccc1-n1cc(-c2nc(NC3CCN(S(=O)(=O)C4CC4)CC3)ncc2C#N)cn1 [Example 277, 4-(1-(6-((tert-Butylamino)methyl)-2-methylpyridin-3-yl)-1H-pyrazol-4-yl)-2-((1-(cyclopropylsulfonyl)piperidin-4-yl)amino)pyrimidine-5-carbonitrile]
9 | – | – | < 50 | Cc1nc(CNC(C)C)ccc1-n1cc(-c2nc(N[C@H]3CCN(S(=O)(=O)c4cn(C)cn4)C[C@H]3C)ncc2C#N)cn1 [Example 278, 4-(1-(6-((Isopropylamino)methyl)-2-methylpyridin-3-yl)-1H-pyrazol-4-yl)-2-(((3R,4S)-3-methyl-1-((1-methyl-1H-imidazol-4-yl)sulfonyl)piperidin-4-yl)amino)pyrimidine-5-carbonitrile]
10 | – | – | < 50 | COC(=O)N[C@@H]1CC[C@@H](NCc2ccc(-n3cc(-c4nc(NC5CCN(S(C)(=O)=O)CC5)ncc4C#N)cn3)c(Cl)c2)C1 [Example 279, Methyl ((1R,3R)-3-((3-chloro-4-(4-(5-cyano-2-((1-(methylsulfonyl)piperidin-4-yl)amino)pyrimidin-4-yl)-1H-pyrazol-1-yl)benzyl)amino)cyclopentyl)carbamate]
11 | – | – | < 50 | COC(=O)N[C@H]1CC[C@@H](NCc2ccc(-n3cc(-c4nc(NC5CCN(S(C)(=O)=O)CC5)ncc4C#N)cn3)c(Cl)c2)C1 [Example 280, Methyl ((1S,3R)-3-((3-chloro-4-(4-(5-cyano-2-((1-(methylsulfonyl)piperidin-4-yl)amino)pyrimidin-4-yl)-1H-pyrazol-1-yl)benzyl)amino)cyclopentyl)carbamate]
12 | – | – | < 50 | COC(=O)N[C@H]1CCC[C@@H]1NCc1ccc(-n2cc(-c3nc(NC4CCN(S(C)(=O)=O)CC4)ncc3C#N)cn2)c(Cl)c1 [Example 281, Methyl ((1,S,2S)-2-((3-chloro-4-(4-(5-cyano-2-((1-(methylsulfonyl)piperidin-4-yl)amino)pyrimidin-4-yl)-1H-pyrazol-1-yl)benzyl)amino)cyclopentyl)carbamate]
13 | – | – | < 50 | COC(=O)NCC1(NCc2ccc(-n3cc(-c4nc(NC5CCN(S(C)(=O)=O)CC5)ncc4C#N)cn3)c(Cl)c2)CCCC1 [Example 282, Methyl ((1-((3-chloro-4-(4-(5-cyano-2-((1-(methylsulfonyl)piperidin-4-yl)amino)pyrimidin-4-yl)-1H-pyrazol-1-yl)benzyl)amino)cyclopentyl)methyl)carbamate]
14 | – | – | < 50 | C[C@]1(O)CC[C@@H](NCc2ccc(-n3cc(-c4nc(NC5CCN(S(=O)(=O)C6CC6)CC5)ncc4C#N)cn3)c(Cl)c2)CC1 [Example 283, 4-(1-(2-Chloro-4-((((1s,4s)-4-hydroxy-4-methylcyclohexyl)amino)methyl)phenyl)-1H-pyrazol-4-yl)-2-((1-(cyclopropylsulfonyl)piperidin-4-yl)amino)pyrimidine-5-carbonitrile]
15 | – | – | < 50 | C[C@]1(O)CC[C@H](NCc2ccc(-n3cc(-c4nc(NC5CCN(S(=O)(=O)C6CC6)CC5)ncc4C#N)cn3)c(Cl)c2)CC1 [Example 284, 4-(1-(2-Chloro-4-((((1r,4r)-4-hydroxy-4-methylcyclohexyl)amino)methyl)phenyl)-1H-pyrazol-4-yl)-2-((1-(cyclopropylsulfonyl)piperidin-4-yl)amino)pyrimidine-5-carbonitrile]
16 | – | – | < 50 | C[C@]1(O)C[C@@H](NCc2ccc(-n3cc(-c4nc(NC5CCN(S(=O)(=O)C6CC6)CC5)ncc4C#N)cn3)c(Cl)c2)C1 [Example 285, 4-(1-(2-Chloro-4-((((1s,3s)-3-hydroxy-3-methylcyclobutyl)amino)methyl)phenyl)-1H-pyrazol-4-yl)-2-((1-(cyclopropylsulfonyl)piperidin-4-yl)amino)pyrimidine-5-carbonitrile]
17 | – | – | < 50 | C[C@]1(O)C[C@H](NCc2ccc(-n3cc(-c4nc(NC5CCN(S(=O)(=O)C6CC6)CC5)ncc4C#N)cn3)c(Cl)c2)C1 [Example 286, 4-(1-(2-Chloro-4-((((1r,3r)-3-hydroxy-3-methylcyclobutyl)amino)methyl)phenyl)-1H-pyrazol-4-yl)-2-((1-(cyclopropylsulfonyl)piperidin-4-yl)amino)pyrimidine-5-carbonitrile]
18 | – | – | < 50 | CS(=O)(=O)N1CCC(Nc2ncc(C#N)c(-c3cnn(-c4ccc(CN[C@@H]5CCCC[C@H]5CO)cc4Cl)c3)n2)CC1 [Example 288]
19 | – | – | < 50 | CS(=O)(=O)N1CCC(Nc2ncc(C#N)c(-c3cnn(-c4ccc(CN[C@H]5CC[C@@H](CO)CC5)cc4Cl)c3)n2)CC1 [Example 289, 4-(1-(2-chloro-4-((((1s,4s)-4-(hydroxymethyl)cyclohexyl)amino)methyl)phenyl)-1H-pyrazol-4-yl)-2-((1-(methylsulfonyl)piperidin-4-yl)amino)pyrimidine-5-carbonitrile]
20 | – | – | < 50 | CS(=O)(=O)N1CCC(Nc2ncc(C#N)c(-c3cnn(-c4ccc(CNCCN5CCS(=O)(=O)CC5)cc4Cl)c3)n2)CC1 [Example 290, 4-(1-(2-Chloro-4-(((2-(1,1-dioxidothiomorpholino)ethyl)amino)methyl)phenyl)-1H-pyrazol-4-yl)-2-((1-(methylsulfonyl)piperidin-4-yl)amino)pyrimidine-5-carbonitrile]
21 | – | – | < 50 | C[C@@H](O)CNCc1ccc(-n2cc(-c3nc(NC4CCN(S(C)(=O)=O)CC4)ncc3C#N)cn2)c(Cl)c1 [Example 291, (R)-4-(1-(2-Chloro-4-(((2-hydroxypropyl)amino)methyl)phenyl)-1H-pyrazol-4-yl)-2-((1-(methylsulfonyl)piperidin-4-yl)amino)pyrimidine-5-carbonitrile]
22 | – | – | < 50 | C[C@H](O)CNCc1ccc(-n2cc(-c3nc(NC4CCN(S(C)(=O)=O)CC4)ncc3C#N)cn2)c(Cl)c1 [Example 292, (S)-4-(1-(2-Chloro-4-(((2-hydroxypropyl)amino)methyl)phenyl)-1H-pyrazol-4-yl)-2-((1-(methylsulfonyl)piperidin-4-yl)amino)pyrimidine-5-carbonitrile]

— patent US11472791B2 (Incyte Corporation, priority 2019, dated 2022)
